# In PubChem BioAssay (NCI):
#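 1) Cells in 96-well plates. 2) Compound, 48 h, 5 concentrations. 3) Linear interpolation between surrounding doses. 4) Unreached endpoint = highest concentration. TGI: concentration producing complete growth inhibition.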
# Legend:
# Test in all cases: NCI anticancer screen, dose series, 48 h
# [1] = test system: A549 NSCLC
# [2] = test system: LOX IMVI melanoma
# [3] = test system: OVCAR-3 ovarian
# [4] = test system: MOLT-4 leukemia
# [5] = test system: HL-60(TB) leukemia
# [6] = test system: MDA-MB-435
# [7] = test system: RXF 393 renal
# [8] = test system: OVCAR-8 ovarian
# [9] = test system: HCT-116 colon
# [10] = test system: EKVX NSCLC
# [11] = test system: KM12 colon
# [12] = test system: CCRF-CEM leukemia
# [13] = test system: IGROV1 ovarian
# [14] = test system: OVCAR-4 ovarian
# [15] = test system: ACHN renal
# [16] = test system: HCT-15 colon
# [17] = test system: NCI-H23 lung
# [18] = test system: U251 CNS
# [19] = test system: SK-OV-3 ovarian
# [20] = test system: HCC-2998 colon
smiles,measurement,setting,value
CCOC(=O)C1=NN(c2ccc(Cl)cc2)C2=CC(C)=NN(C)C(=S)N21,TGI,[1],> 100 µM
same,TGI,[2],> 100 µM
same,TGI,[3],> 100 µM
same,TGI,[4],> 100 µM
same,TGI,[5],> 100 µM
same,TGI,[6],> 100 µM
same,TGI,[7],47.3 µM
same,TGI,[8],> 100 µM
same,TGI,[9],> 100 µM
same,TGI,[10],81.9 µM
same,TGI,[11],> 100 µM
same,TGI,[12],> 100 µM
same,TGI,[13],> 100 µM
same,TGI,[14],> 100 µM
same,TGI,[15],> 100 µM
same,TGI,[16],> 100 µM
same,TGI,[17],> 100 µM
same,TGI,[18],59.2 µM
same,TGI,[19],94.4 µM
same,TGI,[20],> 100 µM
